“Also recorded” adds a separate entry of the source. Where a name gives a salt, the structure may show the parent alone. Read-outs that look alike come from different tables or passages of the source. One block for each molecule: values may come before it.
Key:
peritoneal neutrophils = experiment: In vitro neutrophil chemotaxis toward zymosan-activated rat serum (Example 24); format: cell-based, mouse; conditions: for IC50: 6 h, read-out: ID50 (molar concentration that inhibited chemotaxis by 50 percent)
Protocol: In vitro neutrophil chemotaxis studies were carried out by standard methods, as follows:
Mice were injected with complete Freund's adjuvant (CFA) and peritoneal cells, principally neutrophjls (>90 percent), were reproved from the mice 24 hours thereafter. Blind-well chemotactic chambers (Nucleopore Corp., Pleasanton, Calif.) were utilized.
Medium (RPMI 1640 plus 10 percent fetal calf serum) or medium plus 20 percent zymosan-activated rat serum (ZAS) was added to the lower compartment of each chamber. A nucleopore filter (8 μm pore size) was placed between compartments and 1×10^5 peritoneal neutrophils (above) suspended in medium were placed in the upper compartment. Chambers were incubated for six hours, after which time the filters were removed and stained with Giemsa stain. The number of cells on the lower surface of the filter was counted under a microscope. Treatment groups were assayed in duplicate.
The studies were carried out more specifically as follows:
Zymosan (Sigma Chemical Co., St. Louis, Mo.) was mixed with rat serum for one hour at 37° C. at 1 milligram (mg)/ml. The resulting chemoattractant composition was filtered, aliquotted and stored frozen at -70° C. prior to use.
The above chemoattractant composition was used as a 20 percent v/v solution in medium.
The chemotaxis chambers were arranged as follows:
The chambers were incubated at 37° C. for six hours, after which the chambers were dismantled, and the filters removed and treated as follows:
a) The filters were immersed in Giemsa stain diluted 1:50 for 30-45 minutes.
b) The stained filters were rinsed gently in distilled water for 3-5 minutes.
c) The stained, rinsed filters were air dried without blotting.
Several compounds described herein and control compounds ("drug", above) were examined at various concentrations, in duplicate. The molar concentration of a drug that inhibited the observed chemotaxis by 50 percent, defined as the ID50 value, was determined as shown below.

rat paw [1] = conditions: in vivo; cited from earlier work
[2] = Dissolution and buffering of suspensions, HCl titration (Example 16)
From the text: Note that the term "apparent pK" in this context is meant to encompass the maximization of buffering that come both from solid-state dissolution and its titration as solute.

platelet aggregation = experiment: Mouse tail bleeding time (Example 31 B); format: in vivo; conditions: for % Increase in bleeding time / Mouse Tail Bleeding Time: 100 mg/kg intraperitoneal; for Mouse Tail Bleeding Time: control 37.0 ± 5.25
Protocol: A study of mouse tail bleeding time, which is an in vivo model of platelet aggregation and thrombosis was also conducted. In this widely employed model, bleeding was induced by a standardized transection of the tail tip and subsequent bleeding time was determined after vertical immersion of the tails in isotonic saline at 37° C. for thirty seconds.
Two compounds of the invention, Compound III and Compound VIII, were assessed as compared with aspirin, in another study of mouse tail bleeding time. In this study, the mice were housed in a standard animal room rather than in a noisy small animal isolator. Also, all three drugs were administered by an intraperitoneal route, rather than a subcutaneous route for Compound III and an intraperitoneal route for aspirin.

[3] = test system: gastric submucosal thrombi; experiment: Inhibition of gastric submucosal thrombi (Example 30); format: in vivo, rat; conditions: 10 mg/kg IV
Protocol: Thrombosis was induced in rat stomach submucosal blood vessels by the following two-step treatment. First, 1.5 ml of 100 percent ethanol was administered by oral gavage. This produces non-specific injury to tissues and blood vessels of the gastric mucosa. Second, 1.0 mg of adenosine diphosphate (ADP) in 1.0 ml of H2 O, was administered by oral garage 15 minutes after the administration of ethanol. Administration of ADP biases the organ response towards thrombosis by inducing platelet aggregation.
The pathology generated is typically a disseminated pattern of multiple small thrombi, observed on examination of the gastric mucosa, 1-3 hours after ethanol administration. These thrombi are dark red, dilated, thrombosed submucosal blood vessel segments, each being approximately 1 mm thick and 2 to 6 mm long.
In these studies, animals were treated with drug or centrol at one hour prior to ethanol administration. Thrombosis was induced as discussed before, and animals were sacrificed at 1.5 hours after ethanol administration. Focal thrombi were then counted. In this study, n=9-10.

rat paw [4] = experiment: Post-ischemic reperfusion paw swelling (Example 22); format: in vivo, Sprague Dawley male rats; conditions: for % Change as a result of treatment / Paw swelling, Mean ± SE: another study; for Paw swelling, Mean ± SE: i.p. 45 minutes prior; for Swelling change as a result of treatment: 30 minutes; for Post-ischemic reperfusion 30 minute paw swelling, Mn ± SE: P < 0.02
From the text: This important disease model is used to evaluate aspects of tissue injury that occur in heart attack, or myocardial infarction, and stroke. Under these conditions, a significant period of injury can occur after blood flow has been restored, during the period of reperfusion.
To produce ischemia, blood flow to the left hind foot was largely interrupted by application of a tourniquet made up of two size 18 rubber bands wound eight times around the leg just behind the heel. […] Both application and removal of tourniquet were carried out under ether anesthesia. Injury was equated with organ swelling, which was assayed by measurement of the dorsoventral foot diameter with a Schnelltaster caliper, just before application of the tourniquet and at various times following tourniquet removal, during the reperfusion period.
Rats employed were Sprague Dawley males, weighing 240-280 grams. Drug comparisons were made here employing measurements 30 minutes into the reperfusion period. The widely studied drug allopurinol, a xanthine oxidase inhibitor and a free radical scavenging agent, used in the treatment of gout, and widely used to suppress experimental post-ischemic reperfusion injury was used as an experimental treatment standard. In studies below, allopurinol and all new drugs were given intraperitoneally 45-60 minutes prior to application of the tourniquet. Data are reported as the mean swelling (Mn)±standard error (SE). […] Group n is 5 or 6.
In another study, drug comparisons were made at various times after the reperfusion period. In this study, control and drug treatment groups were as above.

stomach ulcers = experiment: Gastric ulcers in rats with corona virus infection treated with indomethacin (Example 26); format: in vivo, rat; conditions: indomethacin 30 mg/kg oral
From the text: Corona virus is a non-lethal upper respiratory viral pathogen that not infrequently infects rat colonies. It is a type of rodent coryza or catarrh, the equivalent of a disease that falls somewhere between human influenza and a severe common cold. The animals of this study suffered from this condition, a circumstance which was evident by observation, and which was confirmed by virological diagnosis at the Biological Resources Laboratory of the University of Illinois at Chicago. Since stress is a common component of peptic ulcer development in both animals and man, it was concluded that this feature of the status of these experimental animals rendered them appropriate for an ulcer study.
In this study, animals were not food deprived and were divided into treatment groups such that 15 rats received 30 mg/kg indomethacin alone (in water by oral gavage), 14 rats received indomethacin plus an injection of 25 mg/kg cimetidine subcutaneously, and 7 rats received indomethacin plus subcutaneous injection of 17.5 mg/kg of Compound III.
All animals were sacrificed by ether euthanasia 24 hours later and their stomachs evaluated for ulcer pathology. In this study ulcers were not hemorrhagic. Results are shown below as the average number of stomach ulcers per stomach.

[5] = Mus musculus, Neutrophil, 20 percent zymosan-activated rat serum, six hours, 37° C.
[6] = Mus musculus, Neutrophil, dose 0.1 μg/ml, read-out: Percent Inhibition of chemotaxis
[7] = Mus musculus, Neutrophil, dose 1.0 μg/ml, read-out: Percent Inhibition of chemotaxis
[8] = Mus musculus, Neutrophil, dose 10.0 μg/ml, read-out: Percent Inhibition of chemotaxis
[9] = Mus musculus, Neutrophil, read-out: Percent Inhibition of chemotaxis

IC50 (peritoneal neutrophils; [5]): 0.1 µM
SMILES: CCCCC[C@H](O)/C=C/[C@H]1[C@H](O)CC(=O)[C@@H]1C/C=C\CCCC(=O)O [PGE2, Prostaglandin E2, reference compound]
inhibition at 0.01 µg/mL (peritoneal neutrophils; Mus musculus, Neutrophil, dose 0.01 μg/ml, read-out: Percent Inhibition of chemotaxis): 71%
inhibition at 0.1 µg/mL (peritoneal neutrophils; [6]): 91.5%
inhibition at 0.2 µg/mL (peritoneal neutrophils; Mus musculus, Neutrophil, dose 0.2 μg/ml, read-out: Percent Inhibition of chemotaxis): 71.5%
relative activity in inhibiting neutrophil chemotaxis, in words (peritoneal neutrophils; in vitro): about equally as active as Compound III

SMILES: C[C@@H]1C[C@H]2[C@@H]3CCC4=CC(=O)C=C[C@]4(C)[C@@]3(F)[C@@H](O)C[C@]2(C)[C@@]1(O)C(=O)CO [Dexamethasone]
effect on edema that develops following removal of the tourniquet, in words (rat paw [1]): effective only when administered more than three hours in advance

HCl needed to lower pH of suspension to below pH 2.00 ([2]; 50 mg in 20 ml distilled water, initial pH 4.44 (aluminum trihydroxide), 4.91 (sucralfate), 4.23 (Compound III:Al), water alone 0.30): 0.90 meq
SMILES: [OH][Al]([OH])[OH] [aluminum trihydroxide, reference compound]
buffering action, in words ([2]; HCl titration): only minor buffering power relative to distilled H2 O, but no pK

IC50 (peritoneal neutrophils; [5]): > 50 µM
SMILES: C[C@]12C=CC(=O)C=C1CC[C@@H]1[C@@H]2C(=O)C[C@@]2(C)[C@H]1CC[C@]2(O)C(=O)CO [Prednisone, reference compound]
inhibition at 0.1 µg/mL (peritoneal neutrophils; [6]): 15.5%
inhibition at 1 µg/mL (peritoneal neutrophils; [7]): 16%
inhibition at 10 µg/mL (peritoneal neutrophils; [8]): 20%

SMILES: CC1(C)O[C@H]2O[C@H]([C@@H](COS(=O)(=O)O)OS(=O)(=O)O)[C@@H](OS(=O)(=O)O)[C@H]2O1 [Compound VIII, 1,2-O-(2-Propylidene)-3,5,6-tri-O-sulfo-α-D-allofuranose, tripotassium salt]
% Increase in bleeding time (platelet aggregation): 278%
Mouse Tail Bleeding Time (platelet aggregation): 139.88 ± 28.23 s
potency relative to aspirin in prolonging mouse tail bleeding time / suppressing platelet aggregation (platelet aggregation; first study: aspirin 75 mg/kg IP, Compound III s.c. or oral, second study: all IP 100 mg/kg, tripotassium salt): more effective than aspirin; also recorded: more potent than aspirin in the suppression of platelet aggregation
Drug Effect on thrombi [3]: -38.1%
Mean Thrombi per Stomach, ±SE ([3]; ethanol + ADP, control 10.60 ± 1.42): 6.56 ± 1.60 per Stomach
paw swelling less than control (rat paw [4]; 60 minutes of reperfusion time, i.p.): 71%
% Change as a result of treatment (rat paw [4]; reperfusion time 20 mins., i.p.): -46%
Paw swelling, Mean ± SE (rat paw [4]; reperfusion time 20 mins., control 8.20 ± 1.02): 4.60 ± 0.40 0.1 mm
% Change as a result of treatment (rat paw [4]; reperfusion time 30 mins., i.p.): -64%
Paw swelling, Mean ± SE (rat paw [4]; reperfusion time 30 mins., control 6.60 ± 0.87): 2.40 ± 0.51 0.1 mm

SMILES: O=S(=O)(O)OC[C@H]1O[C@H](OS(=O)(=O)O)[C@H](O)[C@@H](OS(=O)(=O)O)[C@@H]1O [Compound VII, 1,3,6-Tri-O-sulfo-α-D-glucopyranose, tripotassium salt, reference compound]
IC50 (peritoneal neutrophils; Mus musculus, Neutrophil): < 100 µM
inhibition at 0.1 µg/mL (peritoneal neutrophils; [9]): 8%
inhibition at 1 µg/mL (peritoneal neutrophils; [9]): 23%
inhibition at 10 µg/mL (peritoneal neutrophils; [9]): 29%

SMILES: Oc1ncnc2[nH]ncc12 [Allopurinol, reference compound]
effect on edema that develops following removal of the tourniquet, in words (rat paw [1]): suppress the edema
near toxic level at which allopurinol is utilized in reperfusion injury (rat paw [1]): 20 to 30 mg/kg
Swelling change as a result of treatment (rat paw [4]; study B, i.p., Compound III 0.2 mg/kg, allopurinol 20 mg/kg): -35%
Post-ischemic reperfusion 30 minute paw swelling, Mn ± SE (rat paw [4]; study B, i.p., Compound III 0.2 mg/kg, allopurinol 20 mg/kg, control 20.5 ± 0.76): 13.3 ± 0.56 0.1 mm

SMILES: CC(=O)Oc1ccccc1C(=O)O [Aspirin, reference compound]
% Increase in bleeding time (platelet aggregation): 97%
Mouse Tail Bleeding Time (platelet aggregation): 72.88 ± 10.9 s

SMILES: CN/C(=N/CCSCc1nc[nH]c1C)NC#N [Cimetidine, reference compound]
Percent Inhibition of ulcer frequency (stomach ulcers; cimetidine 25 mg/kg s.c. or Compound III 17.5 mg/kg s.c.): 58%
Ulcer Frequency per stomach, Mn ± SE (stomach ulcers; cimetidine 25 mg/kg s.c. or Compound III 17.5 mg/kg s.c. where given, P<0.02): 1.07 ± 0.25 Per Stomach

IC50 (peritoneal neutrophils; [5]): > 10 µM
SMILES: CCCCC1(CCCC)O[C@H]2O[C@H]([C@@H](COS(=O)(=O)O)OS(=O)(=O)O)[C@H](OS(=O)(=O)O)[C@H]2O1 [Compound IV, 1,2-O-(5-Nonylidene)-3,5,6-tri-O-sulfo-α-D-glucofuranose, tripotassium salt]
inhibition at 1 µg/mL (peritoneal neutrophils; [7]): 44%
Percent Inhibition of chemotaxis (peritoneal neutrophils; dose 1.0 μg/ml, tripotassium salt): 28.5%
Post-ischemic reperfusion 30 minute paw swelling, Mn ± SE (rat paw [4]; study D, 0.2 mg/kg i.p., control 11.4 ± 0.51): 21.2 ± 2.25 0.1 mm
Swelling change as a result of treatment (rat paw [4]; study D, 0.2 mg/kg i.p., edema enhancement): +86%

SMILES: O=S(=O)(O)OC[C@@H](OS(=O)(=O)O)[C@H]1O[C@H](O)[C@H](O)[C@H]1OS(=O)(=O)O [Compound II, 3,5,6-Tri-O-sulfo-α-D-glucofuranose, tripotassium salt]
IC50 (peritoneal neutrophils; Mus musculus, Neutrophil): 30 µM
inhibition at 0.1 µg/mL (peritoneal neutrophils; [9]): 2.5%
inhibition at 1 µg/mL (peritoneal neutrophils; [9]): 45.5%
inhibition at 10 µg/mL (peritoneal neutrophils; [9]): 48.5%

SMILES: O=C(O)Cc1ccccc1Nc1c(Cl)cccc1Cl [diclofenac]
effect on edema that develops following removal of the tourniquet, in words (rat paw [1]): not effective at any time

IC50 (peritoneal neutrophils; [5]): 2 µM
SMILES: CCC1(CC)O[C@H]2O[C@H]([C@@H](COS(=O)(=O)O)OS(=O)(=O)O)[C@H](OS(=O)(=O)O)[C@H]2O1 [Compound V, 1,2-O-(3-Pentylidene)-3,5,6-tri-O-sulfo-α-D-glucofuranose, tripotassium salt]
inhibition at 0.1 µg/mL (peritoneal neutrophils; [6]): -8%
inhibition at 1 µg/mL (peritoneal neutrophils; [7]): 62%
inhibition at 10 µg/mL (peritoneal neutrophils; [8]): 101%

SMILES: CC(=O)Nc1ccc(C=Cc2ccc(N=C=S)cc2S(=O)(=O)O)c(S(=O)(=O)O)c1 [SITS, 4-acetamido-4'-isothiocyano-stilbene-2,2'-disulfonate, reference compound]
IC50 (peritoneal neutrophils; Mus musculus, Neutrophil): > 20 µM
inhibition at 0.1 µg/mL (peritoneal neutrophils; [9]): 18.5%
inhibition at 1 µg/mL (peritoneal neutrophils; [9]): -12.5%
inhibition at 10 µg/mL (peritoneal neutrophils; [9]): 48.5%

Reference: patent US5358936A, “Anionic furanose derivatives, methods of making and using the same” (Gordon; Paul, priority 1991, dated 1994)
